According to US6313177A, “D-mannitol derivatives as HIV aspartyl protease inhibitors” (Pharmacor Inc., priority 1999, dated 2001):
Read-outs that look alike come from different tables or passages of the source.

Target: T1, recombinant HIV-1 protease (Human immunodeficiency virus type 1 group M subtype B, UniProt P04585)
T1 construct: recombinant HIV-1 protease; purchased Bachem Bioscience
Experiment: Fluorometric (FRET) enzymatic assay for the inhibition constant (Ki) against the HIV protease
Format: biochemical
Excerpt: Enzymatic Assay for Determining the Inhibition Constant (Ki) of Synthetic Compounds Prepared Against the HIV Protease
This is a fluorometric assay based on the cleavage by protease of a substrate carrying a donor group (EDANS, excitation at 340 nm and emission at 490 nm) and an acceptor group (DABCYL) on each side of the cleavage site, interacting together through fluorescence resonance energy transfer (FRET). Cleavage of the substrate by protease stops energy exchange between the two groups, resulting in a time-dependent increase in fluorescence intensity that is linearly related to the extent of substrate hydrolysis.
The enzymatic assay is done at 30° C. in a spectrophotometer microcuvet, in a total volume of 400 μL. The apparatus used for readings is a UV-visible Cary 1 spectrophotometer made by Varian. The reaction is run first in the absence of protease inhibitors for 2 min, using 355 μL of buffer at pH 4.7 (sodium acetate 100 mM, NaCl 1 M, EDTA 1 mM, DTT 1 mM, dimethylsulfoxide 10%, and BSA 1 mg/mL), 40 μL of substrate H-2930 from Molecular Probes (final concentration 10 μM) and 5 μL of recombinant HIV-1 protease (final concentration 18.3 nM) purchased from Bachem Bioscience. Fluorescence readings at […] are taken continuously during the reaction, allowing determination of the enzyme's initial velocity (v0). At the end of the 2 min incubation, the potential inhibitor at a defined concentration in a volume of 2 μL is added to the reaction, and fluorescence readings are taken for another 2 min, allowing determination of enzyme velocity (vi) in the presence of the inhibitory compound. Several concentrations of the putative inhibitors are tested in the assay. After calculation of vo and vi, the inhibition constant (Ki) of the compound is determined using the equation of Henderson: [formula]
and [I]=inhibitor concentration, [S ]=substrate concentration, Km=Michaelis-Menten constant, Kiapp =apparent Ki
Note that the Michaelis-Menten constant of HIV protease is determined by running the assay without inhibitors, using several concentrations of substrate, and plotting the results as a Cornish-Bowden graph with the ratio substrate concentration/velocity as the ordinate and substrate concentration as the abscissa.

[1] = Table 1, benzylated D-mannitol derivatives, pH 4.7, 30° C., substrate 10 μM, protease 18.3 nM

`O[C@H]([C@@H](O)[C@H](COCc1cccs1)OCc1ccccc1)[C@H](COCc1cccs1)OCc1ccccc1` (stereo in doubt) [Compound 92, 1,6-di-O-(2-thienylmethyl)-2,5-di-O-benzyl-L-mannitol] gave a Ki (Table 2, tetra-substituted D-mannitol derivatives, pH 4.7, 30° C., substrate 10 μM, protease 18.3 nM) of 800 nM.
`Oc1cccc(CO[C@H](COCc2ccccc2)[C@@H](O)[C@H](O)[C@@H](COCc2ccccc2)OCc2cccc(O)c2)c1` [Compound 3, 1,6-di-O-benzyl-2,5-di-O-(3-hydroxybenzyl)-D-mannitol] gave a Ki [1] of 6000 nM.
`Oc1ccc(COC[C@@H](OCc2ccc(F)cc2)[C@@H](O)[C@H](O)[C@@H](COCc2ccc(O)cc2)OCc2ccc(F)cc2)cc1` [Compound 4, 1,6-di-O-(4-hydroxybenzyl)-2,5-di-O-(4-fluorobenzyl)-D-mannitol] gave a Ki [1] of 400 nM.
Molecule `Oc1ccc(CO[C@H](COCc2ccccc2F)[C@@H](O)[C@H](O)[C@@H](COCc2ccccc2F)OCc2ccc(O)cc2)cc1` [Compound 5, 1,6-di-(2-fluorobenzyl)-2,5-di-(4-hydroxybenzyl)-D-mannitol] has a Ki [1] of 2700 nM.
With `O[C@@H]([C@H](O)[C@@H](COCc1ccccc1)OCc1ccc(OCc2ccccc2)cc1)[C@@H](COCc1ccccc1)OCc1ccc(OCc2ccccc2)cc1` [Compound 6, 1,6-di-O-benzyl-2,5-di-O-(4-benzyloxybenzyl)-D-mannitol] the Ki [1] was under 1000 nM.
With `Nc1ccc(CO[C@H](COCc2ccccc2)[C@@H](O)[C@H](O)[C@@H](COCc2ccccc2)OCc2ccccc2)cc1` [Compound 9, 1,2,6-tri-O-benzyl-5-O-(4-aminobenzyl)-D-mannitol] the Ki [1] was 3300 nM.
`O[C@@H]([C@H](O)[C@@H](COCc1ccccc1F)OCc1ccccc1)[C@@H](COCc1ccccc1)OCc1ccccc1` [Compound 10, 1,2,5-tri-O-benzyl-6-O-(2-fluorobenzyl)-D-mannitol] gave a Ki [1] of 400 nM.
With `O[C@@H]([C@H](O)[C@@H](COCc1ccc(C(F)(F)F)cc1)OCc1ccc(C(F)(F)F)cc1)[C@@H](COCc1ccc(C(F)(F)F)cc1)OCc1ccc(C(F)(F)F)cc1` [Compound 11, 1,2,5,6-tetra-O-(4-trifluoromethylbenzyl)-D-mannitol] the Ki [1] was over 5000 nM.
For `N#Cc1ccc(COC[C@@H](OCc2ccc(C#N)cc2)[C@@H](O)[C@H](O)[C@@H](COCc2ccc(C#N)cc2)OCc2ccc(C#N)cc2)cc1` [Compound 12, 1,2,5,6-tetra-O-(4-cyanobenzyl)-D-mannitol], the Ki [1] was 3100 nM.
`N#Cc1ccc(CO[C@H](COCc2ccccc2)[C@@H](O)[C@H](O)[C@@H](COCc2ccccc2)OCc2ccc(C#N)cc2)cc1` [Compound 14, 1,6-di-O-benzyl-2,5-di-O-(4-cyanobenzyl)-D-mannitol] gave a Ki [1] of 5400 nM.
For `O[C@@H]([C@H](O)[C@@H](COCc1ccccc1)OCc1c(F)c(F)c(F)c(F)c1F)[C@@H](COCc1ccccc1)OCc1c(F)c(F)c(F)c(F)c1F` [Compound 15, 1,6-di-O-benzyl-2,5-di-O-(pentafluorobenzyl)-D-mannitol], the Ki [1] was over 5000 nM.
`O[C@@H]([C@H](O)[C@@H](COCc1ccccc1)OCc1ccc(F)cc1)[C@@H](COCc1ccccc1)OCc1ccc(F)cc1` [Compound 16, 1,6-di-O-benzyl-2,5-di-O-(4-fluorobenzyl)-D-mannitol] showed a Ki [1] of 700 nM.
`O[C@@H]([C@H](O)[C@@H](COCc1ccccc1)OCc1ccc(Cl)cc1)[C@@H](COCc1ccccc1)OCc1ccc(Cl)cc1` [Compound 17, 1,6-di-O-benzyl-2,5-di-O-(4-chlorobenzyl)-D-mannitol] gave a Ki [1] of 2000 nM.
`O[C@@H]([C@H](O)[C@@H](COCc1ccccc1)OCc1ccc(Br)cc1)[C@@H](COCc1ccccc1)OCc1ccc(Br)cc1` [Compound 18, 1,6-di-O-benzyl, 2,5-di-O-(4-bromobenzyl)-D-mannitol] was tested, and the Ki [1] was 2100 nM.
`COC(=O)c1ccc(CO[C@H](COCc2ccccc2)[C@@H](O)[C@H](O)[C@@H](COCc2ccccc2)OCc2ccc(C(=O)OC)cc2)cc1` [Compound 19, 1,6-di-O-benzyl-2,5-di-O-(4-carbomethoxybenzyl)-D-mannitol] gave a Ki [1] of 8400 nM.
Molecule `O[C@@H]([C@H](O)[C@@H](COCc1ccccc1)OCc1cccc(F)c1)[C@@H](COCc1ccccc1)OCc1cccc(F)c1` [Compound 20, 1,6-di-O-benzyl-2,5-di-O-(3-fluorobenzyl)-D-mannitol] has a Ki [1] of 1800 nM.
Molecule `O[C@@H]([C@H](O)[C@@H](COCc1ccccc1)OCc1ccccc1F)[C@@H](COCc1ccccc1)OCc1ccccc1F` [Compound 21, 1,6-di-O-benzyl-2,5-di-O-(2-fluorobenzyl)-D-mannitol] has a Ki of 3700 nM.
Molecule `O[C@@H]([C@H](O)[C@@H](COCc1ccccc1)OCc1ccc(C(F)(F)F)cc1)[C@@H](COCc1ccccc1)OCc1ccc(C(F)(F)F)cc1` [Compound 22, 1,6-di-O-benzyl-2,5-di-O-(4-trifluoromethylbenzyl)-D-mannitol] has a Ki [1] of 10000 nM.
`O[C@@H]([C@H](O)[C@@H](COCc1ccccc1)OCc1ccc(F)cc1F)[C@@H](COCc1ccccc1)OCc1ccc(F)cc1F` [Compound 23, 1,6-di-O-benzyl-2,5-di-O-(2,4-difluorobenzyl)-D-mannitol] showed a Ki [1] of 2600 ± 500 nM.
In the case of `Cc1ccc(CO[C@H](COCc2ccccc2)[C@@H](O)[C@H](O)[C@@H](COCc2ccccc2)OCc2ccc(C)cc2)cc1` [Compound 24, 1,6-di-O-benzyl-2,5-di-O-(4-methylbenzyl)-D-mannitol], the Ki [1] is reported as 3700 nM.
Work on `O[C@@H]([C@H](O)[C@@H](COCc1ccccc1)OCc1c(F)cccc1F)[C@@H](COCc1ccccc1)OCc1c(F)cccc1F` [Compound 25, 1,6-di-O-benzyl-2,5-di-O-(2,6-difluorobenzyl)-D-mannitol] yielded a Ki [1] of 6400 nM.
`Cc1ccc(COC[C@@H](OCc2ccccc2)[C@@H](O)[C@H](O)[C@@H](COCc2ccc(C)cc2)OCc2ccccc2)cc1` [Compound 26, 1,6-di-O-(4-methylbenzyl)-2,5-di-O-benzyl-D-mannitol] gave a Ki [1] of 3000 nM.
In the case of `O[C@@H]([C@H](O)[C@@H](COCc1ccc(C(F)(F)F)cc1)OCc1ccccc1)[C@@H](COCc1ccc(C(F)(F)F)cc1)OCc1ccccc1` [Compound 27, 1,6-di-O-(4-trifluoromethylbenzyl)-2,5-di-O-benzyl-D-mannitol], the Ki [1] is reported as over 2000 nM.
`N#Cc1ccc(COC[C@@H](OCc2ccccc2)[C@@H](O)[C@H](O)[C@@H](COCc2ccc(C#N)cc2)OCc2ccccc2)cc1` [Compound 28, 1,6-di-O-(4-cyanobenzyl)-2,5-di-O-benzyl-D-mannitol] gave a Ki [1] of 4300 nM.
Work on `COC(=O)c1ccc(COC[C@@H](OCc2ccccc2)[C@@H](O)[C@H](O)[C@@H](COCc2ccc(C(=O)OC)cc2)OCc2ccccc2)cc1` [Compound 29, 1,6-di-O-(4-carbomethoxybenzyl)-2,5-di-O-benzyl-D-mannitol] yielded a Ki [1] of 2000 nM.
With `CC(C)COC(=O)c1ccc(COC[C@@H](OCc2ccccc2)[C@@H](O)[C@H](O)[C@@H](COCc2ccc(C(=O)OCC(C)C)cc2)OCc2ccccc2)cc1` [Compound 30, 1,6-di-O-(4-carboisobutoxybenzyl)-2,5-di-O-benzyl D-mannitol] the Ki [1] was over 3000 nM.
`O[C@@H]([C@H](O)[C@@H](COCc1ccc(F)cc1)OCc1ccccc1)[C@@H](COCc1ccc(F)cc1)OCc1ccccc1` [Compound 31, 1,6-di-O-(4-fluorobenzyl)-2,5-di-O-benzyl-D-mannitol] showed a Ki [1] of 2500 nM.
Molecule `O[C@@H]([C@H](O)[C@@H](COCc1ccccc1F)OCc1ccccc1)[C@@H](COCc1ccccc1F)OCc1ccccc1` [Compound 32, 1,6-di-O-(2-fluorobenzyl)-2,5-di-O-benzyl-D-mannitol] has a Ki [1] of 600 nM.
`O[C@@H]([C@H](O)[C@@H](COCc1ccc(F)cc1F)OCc1ccccc1)[C@@H](COCc1ccc(F)cc1F)OCc1ccccc1` [Compound 33, 1,6-di-O-(2,4-fluorobenzyl)-2,5-di-O-benzyl-D-mannitol] gave a Ki [1] of 4200 ± 500 nM.
`O[C@@H]([C@H](O)[C@@H](COCc1ccccc1F)OCc1ccc(Br)cc1)[C@@H](COCc1ccccc1F)OCc1ccc(Br)cc1` [Compound 34, 1,6-di-O-(2-fluorobenzyl)-2,5-di-O-(4-bromobenzyl)-D-mannitol] was tested, and the Ki [1] was 1900 nM.
`O[C@@H]([C@H](O)[C@@H](COCc1c(F)cccc1F)OCc1ccccc1)[C@@H](COCc1c(F)cccc1F)OCc1ccccc1` [Compound 35, 1,6-di-O-(2,6-difluorobenzyl)-2,5-di-O-benzyl-D-mannitol] showed a Ki [1] of 330 ± 50 nM.
`Cc1ccccc1CO[C@H](COCc1ccccc1F)[C@@H](O)[C@H](O)[C@@H](COCc1ccccc1F)OCc1ccccc1C` [Compound 38, 1,6-di-O-(2-fluorobenzyl)-2,5-di-O-(2-methylbenzyl)-D-mannitol] gave a Ki [1] of 800 nM.
For `O[C@@H]([C@H](O)[C@@H](COCc1c(F)cccc1F)OCc1ccc(F)cc1)[C@@H](COCc1c(F)cccc1F)OCc1ccc(F)cc1` [Compound 39, 1,6-di-O-(2,6-difluorobenzyl)-2,5-di-O-(4-fluorobenzyl)-D-mannitol], the Ki was 330 nM.
